Results: PubChem BioAssay (NCI)
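96-well plates; 48 h exposure; 5 concentrations. Endpoints by linear interpolation between flanking doses. Not reached: highest tested concentration assigned. TGI marks complete inhibition of growth.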

What was measured:
Test in all cases: inhibition of tumour cell growth, NCI panel, 48 h
[1] = test system: SNB-75 CNS
[2] = test system: OVCAR-3 ovarian
[3] = test system: COLO 205 colon
[4] = test system: SK-MEL-28 melanoma
[5] = test system: NCI-H23 lung
[6] = test system: NCI/ADR-RES ovarian
[7] = test system: LOX IMVI melanoma
[8] = test system: U251 CNS
[9] = test system: SF-295 CNS
[10] = test system: HT29 colon
[11] = test system: BT-549 breast
[12] = test system: KM12 colon
[13] = test system: OVCAR-8 ovarian
[14] = test system: MOLT-4 leukemia
[15] = test system: CAKI-1 renal
[16] = test system: RXF 393 renal
[17] = test system: SK-MEL-2 melanoma
[18] = test system: K-562 leukemia
[19] = test system: DU-145 prostate
[20] = test system: NCI-H522 lung
[21] = test system: NCI-H226 lung
[22] = test system: RPMI-8226 leukemia
[23] = test system: HL-60(TB) leukemia
[24] = test system: HCC-2998 colon
[25] = test system: IGROV1 ovarian
[26] = test system: UO-31 renal
[27] = test system: PC-3 prostate
[28] = test system: HS 578T breast
[29] = test system: MDA-MB-435
[30] = test system: UACC-62 melanoma
[31] = test system: MDA-N
[32] = test system: NCI-H460 lung
[33] = test system: SF-268 CNS
[34] = test system: UACC-257 melanoma
[35] = test system: SN12C renal
[36] = test system: M14 melanoma
[37] = test system: SK-MEL-5 melanoma
[38] = test system: MDA-MB-231 breast
[39] = test system: MCF7 breast
[40] = test system: HCT-15 colon
[41] = test system: OVCAR-5 ovarian
[42] = test system: HCT-116 colon
[43] = test system: SW-620 colon
[44] = test system: TK-10 renal
[45] = test system: EKVX NSCLC
[46] = test system: HOP-62 NSCLC
[47] = test system: MALME-3M melanoma
[48] = test system: SNB-19 CNS
[49] = test system: A498 renal
[50] = test system: ACHN renal
[51] = test system: SR leukemia
[52] = test system: T-47D breast
[53] = test system: A549 NSCLC
[54] = test system: 786-0 renal
[55] = test system: CCRF-CEM leukemia
[56] = test system: OVCAR-4 ovarian
[57] = test system: HOP-92 NSCLC
[58] = test system: SF-539 CNS
[59] = test system: SK-OV-3 ovarian

Question: Which TGI [1] does the source give for `CCOC(=O)N(Cc1cccs1)c1cc(OC)c(OC)c(OC)c1` here?
Answer: > 100 µM

Question: And the TGI [2]?
Answer: > 100 µM

Question: And the TGI [3]?
Answer: 32.9 µM

Question: And the TGI [4]?
Answer: > 100 µM

Question: What about the TGI [5] of the same molecule?
Answer: > 100 µM

Question: And the TGI [6]?
Answer: 29.2 µM

Question: And the TGI [7]?
Answer: > 100 µM

Question: And the TGI [8]?
Answer: > 100 µM

Question: What about the TGI [9] of the same molecule?
Answer: > 100 µM

Question: And the TGI [10]?
Answer: > 100 µM

Question: What about the TGI [11] of the same molecule?
Answer: > 100 µM

Question: And the TGI [12]?
Answer: > 100 µM

Question: What about the TGI [13] of the same molecule?
Answer: > 100 µM

Question: What about the TGI [14] of the same molecule?
Answer: 36 µM

Question: And the TGI [15]?
Answer: > 100 µM

Question: What about the TGI [16] of the same molecule?
Answer: > 100 µM

Question: And the TGI [17]?
Answer: > 100 µM

Question: What about the TGI [18] of the same molecule?
Answer: 65.7 µM

Question: And the TGI [19]?
Answer: > 100 µM

Question: What about the TGI [20] of the same molecule?
Answer: > 100 µM

Question: And the TGI [21]?
Answer: > 100 µM

Question: And the TGI [22]?
Answer: 51.9 µM

Question: What about the TGI [23] of the same molecule?
Answer: > 100 µM

Question: What about the TGI [24] of the same molecule?
Answer: > 100 µM

Question: What about the TGI [25] of the same molecule?
Answer: > 100 µM

Question: And the TGI [26]?
Answer: > 100 µM

Question: What about the TGI [27] of the same molecule?
Answer: 98.9 µM

Question: What about the TGI [28] of the same molecule?
Answer: > 100 µM

Question: What about the TGI [29] of the same molecule?
Answer: 63.2 µM

Question: And the TGI [30]?
Answer: > 100 µM

Question: And the TGI [31]?
Answer: 90.8 µM

Question: And the TGI [32]?
Answer: > 100 µM

Question: What about the TGI [33] of the same molecule?
Answer: > 100 µM

Question: And the TGI [34]?
Answer: > 100 µM

Question: And the TGI [35]?
Answer: > 100 µM

Question: And the TGI [36]?
Answer: > 100 µM

Question: And the TGI [37]?
Answer: > 100 µM

Question: And the TGI [38]?
Answer: > 100 µM

Question: What about the TGI [39] of the same molecule?
Answer: > 100 µM

Question: What about the TGI [40] of the same molecule?
Answer: > 100 µM

Question: And the TGI [41]?
Answer: > 100 µM

Question: What about the TGI [42] of the same molecule?
Answer: > 100 µM

Question: And the TGI [43]?
Answer: > 100 µM

Question: And the TGI [44]?
Answer: > 100 µM

Question: And the TGI [45]?
Answer: > 100 µM

Question: And the TGI [46]?
Answer: > 100 µM

Question: And the TGI [47]?
Answer: > 100 µM

Question: And the TGI [48]?
Answer: > 100 µM

Question: What about the TGI [49] of the same molecule?
Answer: > 100 µM

Question: What about the TGI [50] of the same molecule?
Answer: > 100 µM

Question: And the TGI [51]?
Answer: 65.5 µM

Question: And the TGI [52]?
Answer: > 100 µM

Question: And the TGI [53]?
Answer: > 100 µM

Question: What about the TGI [54] of the same molecule?
Answer: > 100 µM

Question: And the TGI [55]?
Answer: 69.3 µM

Question: And the TGI [56]?
Answer: > 100 µM

Question: How did the TGI [2] turn out when `CC(=O)CCCCC(=O)Nc1ccc(CC(NC(=O)OC(C)(C)C)C(=O)NCC(=O)OCc2ccccc2)cc1` (stereo not given) was run?
Answer: 27.9 µM

Question: What about the TGI [3] of the same molecule?
Answer: 34.7 µM

Question: What about the TGI [4] of the same molecule?
Answer: 35.4 µM

Question: And the TGI [5]?
Answer: 76.6 µM

Question: What about the TGI [6] of the same molecule?
Answer: > 100 µM

Question: What about the TGI [7] of the same molecule?
Answer: 29.3 µM

Question: What about the TGI [8] of the same molecule?
Answer: 32.7 µM

Question: What about the TGI [9] of the same molecule?
Answer: 35.6 µM

Question: What about the TGI [10] of the same molecule?
Answer: 36.7 µM

Question: What about the TGI [11] of the same molecule?
Answer: 28.6 µM

Question: What about the TGI [12] of the same molecule?
Answer: 52.1 µM

Question: And the TGI [13]?
Answer: 39.7 µM

Question: What about the TGI [14] of the same molecule?
Answer: 66.4 µM

Question: What about the TGI [15] of the same molecule?
Answer: 29.1 µM

Question: And the TGI [16]?
Answer: 54.5 µM

Question: What about the TGI [18] of the same molecule?
Answer: 47.6 µM

Question: And the TGI [19]?
Answer: 88.5 µM

Question: And the TGI [20]?
Answer: 57.9 µM

Question: And the TGI [21]?
Answer: 94 µM

Question: And the TGI [22]?
Answer: 39.5 µM

Question: And the TGI [57]?
Answer: 68 µM

Question: And the TGI [23]?
Answer: 43.6 µM

Question: What about the TGI [24] of the same molecule?
Answer: 38 µM

Question: What about the TGI [25] of the same molecule?
Answer: > 100 µM

Question: What about the TGI [26] of the same molecule?
Answer: 39.2 µM

Question: What about the TGI [27] of the same molecule?
Answer: 27.5 µM

Question: And the TGI [28]?
Answer: 48.4 µM

Question: And the TGI [29]?
Answer: 36 µM

Question: What about the TGI [31] of the same molecule?
Answer: 38.6 µM

Question: And the TGI [32]?
Answer: 43 µM

Question: And the TGI [33]?
Answer: 48.3 µM

Question: What about the TGI [35] of the same molecule?
Answer: 64.4 µM

Question: And the TGI [36]?
Answer: 55.2 µM

Question: And the TGI [37]?
Answer: 27.8 µM

Question: And the TGI [38]?
Answer: 48.3 µM

Question: And the TGI [39]?
Answer: 49.5 µM

Question: And the TGI [40]?
Answer: > 100 µM

Question: And the TGI [41]?
Answer: > 100 µM

Question: And the TGI [42]?
Answer: 37.8 µM

Question: What about the TGI [43] of the same molecule?
Answer: 33 µM

Question: What about the TGI [44] of the same molecule?
Answer: > 100 µM

Question: What about the TGI [45] of the same molecule?
Answer: > 100 µM

Question: And the TGI [58]?
Answer: 34.1 µM

Question: What about the TGI [46] of the same molecule?
Answer: 26.8 µM

Question: What about the TGI [47] of the same molecule?
Answer: 40.4 µM

Question: What about the TGI [48] of the same molecule?
Answer: 55 µM

Question: And the TGI [49]?
Answer: 60.6 µM

Question: What about the TGI [50] of the same molecule?
Answer: > 100 µM

Question: And the TGI [59]?
Answer: 52.7 µM

Question: And the TGI [51]?
Answer: 56.9 µM

Question: And the TGI [52]?
Answer: 42.6 µM

Question: What about the TGI [53] of the same molecule?
Answer: > 100 µM

Question: What about the TGI [54] of the same molecule?
Answer: 49 µM

Question: And the TGI [56]?
Answer: 27.6 µM
